Experiments:
[1] = in vitro; settings: male, Beagle, dog; for Measured concentration of PEA (analyte) / % Remaining of Initial: 1 μM
How it was run: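 Half-lives are based on fitting compound loss over 0, 10, 20, 30 and 60 min to a single exponential, with amounts expressed against the zero-time sample. Reactions hold 1 μM substrate in S9 at 37 °C, start on cofactor addition, and are stopped with cold acetonitrile containing formic acid.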

[2] = Plasma stability (37° C., pH 7.4), rat; assay type: in vitro ADME, Sprague-Dawley rat; settings: for half-life at 1 μM: male, Sprague-Dawley, rat, plasma, pH 7.4, rat plasma; for % Remaining of Initial: rat plasma, 1 μM, n = 1
Experimental: (§1) Studies were carried out in mixed-gender human plasma (Lot #GLP530-5), male Sprague-Dawley rat (Lot #RAT297944, RAT313140), male CD-1 mouse (Lot #MSE237700), and male Beagle dog (Lot #BGL87670, BGL82614), collected on sodium heparin. Plasma was adjusted to pH 7.4 prior to initiating the experiments. DMSO stocks were first prepared for the test articles. Aliquots of the DMSO solutions were dosed into 700 μL of plasma, which had been pre-warmed to 37° C., at a final test article concentration of 1 μM. […] Samples were stored at 4° C. until the end of the experiment. After the final time point was sampled, the plate was mixed and then centrifuged at 3,000 rpm for 10 minutes. Calibration standards were prepared in matched matrix. […] Analytical conditions are outlined in Appendix 8-1.
as §1, with “#AS1650-2),” for “#GLP530-5),”, “#RAT297944),” for “#RAT297944, RAT313140),”, “CD-I” for “CD-1”, “#BGL91384),” for “#BGL87670, BGL82614),”, “10-1.” for “8-1.”
Studies were carried out in mixed-gender human plasma (Lot #AS1650-2), male Sprague-Dawley rat (Lot #RAT297944), male CD-1 mouse (Lot #MSE237700), and male Beagle dog (Lot #BGL91384), collected on sodium heparin. Plasma was adjusted to pH 7.4 prior to initiating the experiments. DMSO stocks were first prepared for test articles. […] Samples were stored at 4° C. until the end of experiment. After the final time point was sampled, the plate was mixed and then centrifuged at 3,000 rpm for 10 minutes. Calibration standards were prepared in matched matrix. […] Analytical conditions are outlined in Appendix 13-1.
Studies were carried out in mixed-gender human plasma (Lot #AS 1650-2), male Sprague-Dawley rat (Lot #RAT320835), male CD-1 mouse (Lot #MSE260693), and 6 male Beagle dog (Lot #BGL91384), on sodium heparin. Plasma was adjusted to pH 7.4 prior to initiating the experiments. DMSO stocks were first prepared for the test articles. Aliquots of the DMSO solutions were dosed into 700 μL of plasma, which had been pre-warmed to 37° C., at a final test article concentration of 1 μM. […] Samples were stored at 4° C. until the end of the experiment. After the final time point was sampled, the plate was mixed and then centrifuged at 3,000 rpm for 10 minutes. Calibration standards were prepared in matched matrix. […] Analytical conditions are outlined in Appendix 17-1.

Measured concentration of PEA (analyte) ([1]; 0 min): 0.042 µM
Measured concentration of PEA (analyte) ([1]; 10 min): 0.50 µM
Measured concentration of PEA (analyte) ([1]; 20 min): 0.57 µM
Measured concentration of PEA (analyte) ([1]; 30 min): 0.54 µM
Measured concentration of PEA (analyte) ([1]; 60 min): 0.68 µM
% Remaining of Initial ([1]; s9, 0 h): 100%
% Remaining of Initial ([1]; s9, 10 min): 1.7%
% Remaining of Initial ([1]; s9, 20 min): <1.0%
% Remaining of Initial ([1]; s9, 0.5 h): <1.0%
% Remaining of Initial ([1]; s9, 1 h): <1.0%
microsomal CLint at 1 μM ([1]; s9, CLint): > 69.3 µL/min/mg
half-life at 1 μM ([1]; s9, Half-life): < 10 min
half-life at 1 μM ([2]; read-out: Half-life): < 15 min
half-life at 1 μM ([2]; read-out: Half-life, calculated value in parentheses): 6.9 min
% Remaining of Initial ([2]; 0 min): 100%
% Remaining of Initial ([2]; 15 min): 20%
% Remaining of Initial ([2]; 30 min): 9.3%
% Remaining of Initial ([2]; 60 min): 4.1%
% Remaining of Initial ([2]; 120 min): 1.6%
Structure (SMILES): CCCCCCCCCCCCCCCC(=O)NCCOC(=O)CCC(=O)OC(COC(=O)CCC)COC(=O)CCC [Compound I-16]

From patent publication US11547681B2, “N-acylethanolamide derivatives and uses thereof” (ELIEM THERAPEUTICS, INC., priority 2016, dated 2023)
